Bridge positions count the residues as written; N and C are the ends. Ends that are not written are not given here. Peptide text beside a SMILES is read from it.
Assays:
T. vaginalis cells = assay: EtBr/acridine orange staining of T. vaginalis cells, epifluorescence microscopy; assay type: cell-based, Trichomonas vaginalis; settings: peptide 200 μg/ml co-treated with metronidazole 100 μg/ml, 16 hours
Procedure: T. vaginalis cells (4000 cells/well) were co-treated with metronidazole (100 μg/ml) and Epinecidin-122-42 (200 μg/ml), csSALF55-76 (200 μg/ml), or 1sSALF122-42 (200 μg/ml) for 16 hours. Both metronidazole and the peptides were dissolved in PBS. The T. vaginalis cells were then stained with cold PBS containing 1 μg/ml ethidium bromide (EtBr) and 1 μg/ml acridine orange (AO) for 10 minutes and examined by epifluorescence microscopy.

[1] = test system: T. vaginalis cells (ATCC 50148 and T1); assay: Transmission electron microscopy of T. vaginalis morphology; assay type: cell-based, Trichomonas vaginalis; settings: ATCC 50148 and T1 cells, 16 hours, peptide 150-250 (Epinecidin 150 μg/ml, csSALF 250 mg/ml, lsSALF 150 or 200 μg/ml)
Procedure: The T. vaginalis cells mentioned above were also subjected to TEM analysis as described in Pan et al., DNA Cell Biol. 26:403-413 (2007). Briefly, the ATCC 50148 cells (2×10^4) were treated for 16 hours with Epinecidin-122-42 at a concentration of 150 μg/ml, csSALF55-76 at a concentration of […], and 1sSALF122-42 at a concentration of 150 μg/ml; the T1 cells (2×10^4) were treated for 16 hours with Epinecidin-122-42 at a concentration of 150 μg/ml, csSALF55-76 at a concentration of […], and 1sSALF122-42 at a concentration of 200 μg/ml. T. vaginalis cells treated with PBS were used as a control. Morphology of the treated cells was observed using a transmission electron microscope (Hitachi, H-7000, Tokyo, Japan) at 75 kV; see Pan et al., DNA Cell Biol. 26:403-413 (2007).

[2] = test system: T. vaginalis cells (ATCC 50148 and T1); assay: Scanning electron microscopy of T. vaginalis morphology; assay type: cell-based, Trichomonas vaginalis; settings: ATCC 50148 and T1 cells, peptide 100 or 200 μg/ml, 1, 4 and 16 hours
Procedure: The effect of the three peptides on morphology of T. vaginalis cells was examined by scanning electron microscopy (SEM) and transmission electron microscopy (TEM) as follows. Cells of the ATCC 50148 and T1 strains were cultured in a 96-well cell culture plate (1×10^4 cells/well). The ATCC 50148 cells were treated with Epinecidin-122-42 (100 μg/ml), csSALF55-76 (100 μg/ml), or 1sSALF122-42 (200 μg/ml) for 1, 4, and 16 hours and the T1 cells were treated with Epinecidin-122-42 (100 μg/ml), csSALF55-76 (200 μg/ml), or 1sSALF122-42 (100 μg/ml) for the same periods. T. vaginalis cells treated with PBS were used as a control. The treated cells were then analyzed by SEM. […] A large amount of cell debris was also observed in the peptide-treated cells.

[3] = test system: T. vaginalis cells (ATCC 50148 and T1); assay: T. vaginalis cell viability, trypan blue exclusion assay; assay type: cell-based, Trichomonas vaginalis
Procedure: Finally, the numbers of viable T. vaginalis cells after peptide treatment were counted following the method described in Ofer et al., Int. J. Parasitol., 38:959-968 (2008). Briefly, cells of ATCC 50148 and T1 were treated with each of the three peptides mentioned above at 25, 50, 100, or 200 μg/ml for 1, 4, and 16 h (overnight), then the viability was analyzed. Cell viability was then determined by the conventional trypan blue exclusion assay. […] More than 60% T1 cells died after being treated with this peptide at a concentration of 50 μg/ml for one hour.

[4] = test system: Propionibacterium acnes (BCRC #10723); assay type: cell-based
Procedure: Propionibacterium acnes (BCRC #10723) cells were cultured under the conditions recommended by Bioresource Collection and Research Centre (BCRC) in Taiwan (see bcrc.firdi,org.tw:819/bcrc/indexe.htm). Their growth inhibition by Epinecidin-122-42 was determined following the method described in Pan et al., DNA Cell Biol. 26:403-413 (2007). The minimum inhibitory concentration of this peptide against P. acnes was 200 μg/ml.

[5] = test system: Propionibacterium acnes (BCRC #10723); assay: SEM and TEM of P. acnes morphology; assay type: cell-based; settings: P. acnes BCRC #10723, peptide 100 μg/ml in PBS
Procedure: The effect of Epinecidin-122-42 on P. acnes morphology was examined by SEM and TEM as follows. BCRC #10723 cells were seeded in a 6-well plate (1×10^4 cells per well), cultured for a sufficient period, collected by centrifugation, and re-suspended in PBS to reach an OD550 value of 1.0. The bacterial suspension was mixed with a freshly prepared PBS solution containing the peptide at a concentration of 100 μg/ml or PBS as a control.

[6] = test system: C. albicans strain BCRC #20511; assay type: cell-based, Candida albicans
Procedure: Cells of C. albicans strain BCRC #20511 were cultured following the protocol provided by BCRC. These cells were treated with peptide Epinecidin-122-42 at various concentrations and their growth inhibition was examined following the method disclosed in Pan et al., Int. Immunopharmacol. 7:687-700 (2007).

[7] = test system: C. albicans strain BCRC #20511; assay: SEM and TEM of C. albicans morphology; assay type: cell-based, Candida albicans; settings: C. albicans BCRC #20511, peptide 50 μg/ml
Procedure: The effect of Epinecidin-122-42 (50 μg/ml) on C. albicans cell morphology was analyzed by SEM and TEM following the methods mentioned above.

[8] = ATCC 50148 cells, 50 μg/ml, four hours

Row | Molecule | Effect on cellular and nuclear membranes (EtBr/AO red color in nuclei) (T. vaginalis cells) | Cell morphology by TEM [1] | Cell morphology by SEM [2] | Cells died after treatment [3, 8] | Cells died after treatment ([3]; T1 cells, 25 μg/ml, 16 hours) | Minimum inhibitory concentration [4] [µg/mL] | Cell morphology by SEM and TEM [5] | Cell growth inhibition ([6]; C. albicans BCRC #20511, various concentrations) | Minimum inhibitory concentration ([6]; strain BCRC #20511) [µg/mL] | Cell morphology by SEM and TEM [7] | Viable cells after treatment ([3]; ATCC 50148 cells, 25 μg/ml, one hour) | Viable cells after treatment ([3]; T1 cells, 25 μg/ml, four hours) | Cells died after treatment ([3]; T1 cells, 50 μg/ml, one hour)
1 | CSCC[C@@H]1NC(=O)[C@H](CCCNC(=N)N)NC(=O)CNC(=O)[C@H](CCCCN)NC(=O)[C@H](Cc2ccc(O)cc2)NC(=O)[C@H](Cc2ccc(O)cc2)NC(=O)[C@H](C(C)C)NC(=O)[C@H](CCC(N)=O)NC(=O)[C@H](Cc2ccccc2)NC(=O)[C@H](CCCNC(=N)N)NC(=O)[C@H](CCCCN)NC(=O)[C@H](CC(C)C)NC(=O)[C@H](Cc2ccc(O)cc2)NC(=O)[C@@H]2CCCN2C(=O)[C@H](CCCCN)NC(=O)[C@H](C(C)C)NC(=O)[C@H]([C@@H](C)O)NC(=O)[C@H](Cc2ccccc2)NC(=O)[C@H](CCCCN)NC(=O)[C@@H](NC(=O)[C@H](CCC(=O)O)NC(C)=O)CSSC[C@@H](C(=O)N2CCC[C@H]2C(N)=O)NC(=O)[C@H](Cc2c[nH]c3ccccc23)NC1=O [cs-SALF55-76] (Ac-ECKFTVKPYLKRFQVYYKGRMWCP-NH2; disulfide 2-23; N-terminus and C-terminus assumed) | destroyed the cellular and nuclear membranes | significantly disrupted the intact structure | damaged cell membranes and distorted cell shape | most ATCC 50148 cells died | most T1 cells died |  |  |  |  |  |  |  | 
2 | CSCC[C@H](NC(=O)[C@H](CCCNC(=N)N)NC(=O)CNC(=O)[C@H](CCCCN)NC(=O)[C@H](Cc1ccc(O)cc1)NC(=O)[C@H](Cc1ccc(O)cc1)NC(=O)[C@@H](NC(=O)[C@H](CCC(N)=O)NC(=O)[C@H](Cc1ccccc1)NC(=O)[C@H](CCCNC(=N)N)NC(=O)[C@H](CCCCN)NC(=O)[C@H](CC(C)C)NC(=O)[C@H](Cc1ccc(O)cc1)NC(=O)[C@@H]1CCCN1C(=O)[C@H](CCCCN)NC(=O)[C@@H](NC(=O)[C@@H](NC(=O)[C@H](Cc1ccccc1)NC(=O)[C@H](CCCCN)NC(=O)[C@H](CS)NC(=O)[C@@H](N)CCC(=O)O)[C@@H](C)O)C(C)C)C(C)C)C(=O)N[C@@H](Cc1c[nH]c2ccccc12)C(=O)N[C@@H](CS)C(=O)N1CCC[C@H]1C(=O)O [ls-SALF55-76] (H-ECKFTVKPYLKRFQVYYKGRMWCP-OH; N-terminus and C-terminus assumed) | destroyed the cellular and nuclear membranes | significantly disrupted the intact structure | damaged cell membranes and distorted cell shape | most ATCC 50148 cells died | most T1 cells died |  |  |  |  |  |  |  | 
3 | GFIFHIIKGLFHAGKMIHGLV-NH2 [Epinecidin-122-42] | destroyed the cellular and nuclear membranes | significantly disrupted the intact structure | damaged cell membranes and distorted cell shape |  |  | 200 | destroyed the outer membranes of P. acnes cells | significantly inhibited C. albicans cell growth | 25 | irregular shape and disrupted outer/intracellular membranes | No viable cells | No viable cells | More than 60%

From patent US8377867B2, “Use of epinecidin-1 peptides and anti-lipopolysaccharide factor peptides for treating microbial infection” (Academia Sinica, priority 2009, dated 2013)
